Results as given in patent US5980913A, “Peptides having immunomodulatory activity” (Biochem Pharma, Inc., priority 1994, dated 1999).
Each block holds one compound with its values, some of them ahead of it. Where a SMILES comes first, the peptide text is derived from it. [ ]: non-standard residue; d: D form.

Assays:
[1] = tested on: NK cells; test: Functional in vivo/ex vivo NK cell assay, spleen cells, effector:target ratio 100:1; parameters: species or system mice; details: for NK cell assay, % response of CTL: CTL = control
Experimental: C57BL.backslash.6 mice are treated with 0, 50, 100, 200, and 300 mg/kg of drug (in saline) for 4 consecutive days. Blood is taken by cardiac puncture on day 5, and the lymphocytes are isolated from spleen in the following manner:
The spleen is aseptically removed and mashed by pressing against a steel strainer with a rubber plunger. The cell suspension is separated from the clumps by letting them settle at the bottom of the tube. The cell suspension is then separated on a Lymphocyte M layer and the interface is recovered and resuspended in media.
Important in immunosurveillance, NK cells are capable of lysing tumors, virus-infected or embryo-derived cells in vitro spontaneously without prior sensitization. Immunomodulators are evaluated using murine splenocytes and human peripheral blood mononuclear leukocytes.
Spleen cells were used to test for NK activity at a effector:target ratio of 100:1.

[2] = Stability in Rat Whole Blood at 37° C., HPLC; assay type: in vitro ADME; parameters: half-life: dose or concentration left out as unconfirmed; details: for HPLC AREA: rat whole blood 37° C.
Experimental: Eluent: A=CH3 CN B=Ammonium Acetate 0.01 M pH 6
Stock solution of the peptide is prepared at a concentration of 1.lmg/ml and dissolved in 10% CH3 CN/H2 O.
Rat Whole Blood (EDTA) is spiked with the peptide to give a concentration of […].
Same concentration of 10% CH3 CN/H2 O is also spiked to Rat Whole Blood (EDTA) as a control blank.
Aliquotes of […] are taken (in duplicate) of both spiked and control blanks at the following times:
FOR BLANK BLOOD: 0', 90'.
Each aliquoted samples are centrifuged at 4° C., 4400 rpm for 10 minutes.
3. Extraction Procedure: Liquid--Liquid Extraction
For each plasma sample, 100 μl of plasma are transferred to an eppendorf vial and 200 μl of acetonitrile added to it. The mixture is vortexed for 30 seconds and centrifuged at 4° C., 5 minutes 14000 rpm (Centra MP4R centrifuge, rotor # IEC 851). 200 μl of supernatant are transferred to another vial and evaporated to dryness with the Speed vac Plus (Savant SC-110A). The dried sample is reconstituted with […] of Mobile phase and an aliquote of this is injected to HPLC(high pressure liquid chromatography) for analysis.

Compound: NCCCC[C@H](N)C(=O)N[C@@H](CC(N)=O)C(=O)N1CCC[C@H]1C(=O)N[C@@H](Cc1ccc(O)cc1)C(=O)O [PEPTIDE #1, H-Lys-Asn-Pro-Tyr-OH] (H-KNPY-OH)
NK cell assay, % response of IL-2 ([1]; 50 mg/kg): 48.34%
NK cell assay, Average ([1]; 50 mg/kg): 2.52
NK cell assay, % response of CTL ([1]; 50 mg/kg): 112.48%
NK cell assay, % response of IL-2 ([1]; 100 mg/kg): 69.48%
NK cell assay, Average ([1]; 100 mg/kg): 3.63
NK cell assay, % response of CTL ([1]; 100 mg/kg): 161.66%
NK cell assay, % response of IL-2 ([1]; 200 mg/kg): 53.13%
NK cell assay, Average ([1]; 200 mg/kg): 2.77
NK cell assay, % response of CTL ([1]; 200 mg/kg): 123.63%
NK cell assay, % response of IL-2 ([1]; 300 mg/kg): 58.49%
NK cell assay, Average ([1]; 300 mg/kg): 3.05
NK cell assay, % response of CTL ([1]; 300 mg/kg): 136.11%

HPLC AREA ([2]; 0 min): 2471958
HPLC AREA ([2]; 5 min): 2362251.2
HPLC AREA ([2]; 10 min): 2386700
HPLC AREA ([2]; 15 min): 2965610
HPLC AREA ([2]; 30 min): 2038700.5
HPLC AREA ([2]; 45 min): 2186985.5
HPLC AREA ([2]; 60 min): 2194185.5
HPLC AREA ([2]; 75 min): 2559208.5
HPLC AREA ([2]; 90 min): 2263081.5
half-life ([2]; rat, rat whole blood (EDTA), 37° C.): > 1.5 h
Compound: NCCCC[C@@H](N)C(=O)N[C@@H](CC(N)=O)C(=O)N1CCC[C@H]1C(=O)N[C@@H](Cc1ccc(O)cc1)C(=O)O [PEPTIDE #5, H-(D-Lys)-Asn-Pro-Tyr-OH] (H-[dK]NPY-OH)
